For 30 compounds, EC50 and IC50 results are on record in US20260207618A1, “PYRIMIDINE CARBOXAMIDE COMPOUNDS” (Acrivon Therapeutics, Inc., priority 2022, published 2026).

The subject of one assay is ACHN cells. Briefly: Cell Titer Glo viability assay in ACHN cells. Type of assay: cell-based. Particulars: Homo sapiens, 144 h, 0.17 to 10,000 nM. As for the experimental part:
ACHN renal cell carcinoma cell line (ATCC) was cultured in Minimum Essential Medium Eagle supplemented with 10% fetal calf serum (Sigma), 1% Penicillin-Streptomycin and 10 mM HEPES buffer (HyClone). Cell cultures were kept in a humidified incubator at 37° C. and 5% CO2. Cells were routinely tested for Mycoplasma contamination.
ACHN cells were seeded at a density of 400 cells per well in tissue culture treated 384 well plates (Corning Costar). After overnight incubation, cells were treated with drugs at concentrations ranging from 0.17 to 10,000 nM. Viability compared to untreated control was assessed at 144 h using Cell Titer Glo assay 2.0 (Promega).
(ATP-based viability assays read luminescence as a measure of living cells.)

For assay [1], the target named is T1, recombinant human Wee1A kinase (Homo sapiens, UniProt P30291).
T1 construct: full length Wee1A kinase was expressed by baculovirus in insect cells; purchased Invitrogen PV3817; host or cells: insect cells (baculovirus)
In words: LanthaScreen Europium (Eu) Kinase Binding Assay, Wee1A kinase (TR-FRET tracer displacement). Particulars: 30 nM tracer 178, 5 nM Wee1A kinase, 60 minutes at room temperature. In general terms: In TR-FRET formats the signal depends on donor and acceptor labels being close together.

In assay [2] the test system is Cdk1 phosphorylated on tyrosine 15. Briefly: High-content imaging of pCdk1 Y15 by immunofluorescence in ACHN cells. Particulars: Homo sapiens, high-content imaging (IF), 4 h, 7 to 5000 nM, read-out: CDK1 Tyr15 Phosphorylation EC50 (IC50). Type of assay: cell-based. The procedure, abridged:
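ACHN cells were treated with compounds at 7–5000 nM for 4 h, then fixed, permeabilised and immunostained for pCDK1 Y15, with DAPI as nuclear counterstain. Automated imaging gave the percentage of cells with nuclear pCDK1 Y15 positivity relative to DMSO control. EC50 values came from dose-response curves.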

Bounds are passed on as bounds.

T1 sequence (P30291 whole entry): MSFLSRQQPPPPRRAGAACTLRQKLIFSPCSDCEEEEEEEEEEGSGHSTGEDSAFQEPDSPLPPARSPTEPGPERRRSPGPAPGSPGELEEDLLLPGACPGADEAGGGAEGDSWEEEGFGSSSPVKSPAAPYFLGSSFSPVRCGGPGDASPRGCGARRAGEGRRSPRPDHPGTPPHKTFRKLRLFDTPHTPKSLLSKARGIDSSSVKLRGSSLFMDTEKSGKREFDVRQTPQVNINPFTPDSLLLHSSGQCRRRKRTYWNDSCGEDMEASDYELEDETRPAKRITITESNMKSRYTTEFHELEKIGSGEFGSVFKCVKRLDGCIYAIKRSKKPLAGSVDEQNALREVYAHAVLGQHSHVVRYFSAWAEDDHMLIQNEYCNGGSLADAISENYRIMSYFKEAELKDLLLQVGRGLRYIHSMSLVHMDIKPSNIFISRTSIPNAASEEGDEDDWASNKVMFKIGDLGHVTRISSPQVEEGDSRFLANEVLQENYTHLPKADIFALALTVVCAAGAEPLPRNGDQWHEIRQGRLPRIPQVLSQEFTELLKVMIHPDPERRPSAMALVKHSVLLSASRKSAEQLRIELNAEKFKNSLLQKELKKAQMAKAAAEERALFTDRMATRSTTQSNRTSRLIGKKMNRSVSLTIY

One may read the EC50 as the concentration needed to bring the measured effect to its halfway point. The IC50 is the concentration that inhibits the measured activity by half. Take `COc1nc(Nc2ccc(N3CCCNCC3)c(C)c2)ncc1C(=O)Nc1c(Cl)cccc1Br` [Compound 205]: the half-maximal effective concentration (EC50) in the assay on ACHN cells was at most 250 nM; in assay [2], 100 to 500 nM. For the same compound, the IC50 in assay [1] is at most 10 nM.
Taken in the same sequence, the figures for `COc1nc(Nc2ccc(C3CCN(C)CC3)c(C)c2)ncc1C(=O)Nc1c(Cl)cccc1C(F)(F)F` [Compound 122, N-(2-chloro-6-(trifluoromethyl)phenyl)-4-methoxy-2-((3-methyl-4-(1-methylpiperidin-4-yl)phenyl)amino)pyrimidine-5-carboxamide] were 250 to 1000 nM, 100 to 500 nM and at most 10 nM.
Regarding `COc1nc(Nc2ccc3c(c2)CN(C)CC3(C)C)ncc1C(=O)Nc1c(Cl)cccc1Cl` [Compound 135, N-(2,6-dichlorophenyl)-4-methoxy-2-((2,4,4-trimethyl-1,2,3,4-tetrahydroisoquinolin-7-yl)amino)pyrimidine-5-carboxamide], the EC50 in the assay with ACHN cells is 250 to 1000 nM; in assay [2], at most 100 nM. In addition, the IC50 in assay [1] was at most 10 nM.
As to `COc1nc(Nc2ccc(OCCCN(C)C)c(C)c2)ncc1C(=O)Nc1c(Cl)ccc(O)c1C` [Compound 158, N-(6-chloro-3-hydroxy-2-methylphenyl)-2-((4-(3-(dimethylamino)propoxy)-3-methylphenyl)amino)-4-methoxypyrimidine-5-carboxamide], the half-maximal effective concentration (EC50) in the assay on ACHN cells was in the range of 250 to 1000 nM; in assay [2], 100 to 500 nM. Besides, the 50% inhibitory concentration (IC50) in assay [1] is at most 10 nM.
Take `COc1nc(Nc2ccc3c(c2)CN(C)CC3)ncc1C(=O)Nc1c(Cl)cccc1Cl` [Compound 116, N-(2,6-dichlorophenyl)-4-methoxy-2-((2-methyl-1,2,3,4-tetrahydroisoquinolin-7-yl)amino)pyrimidine-5-carboxamide]: the concentration for a half-maximal effect (EC50) was 250 to 1000 nM in the assay on ACHN cells and at most 100 nM in assay [2]. Further, the IC50 in assay [1] was at most 10 nM.
On to `COc1nc(Nc2ccc(C3CCN(C)CC3)c(C)c2)ncc1C(=O)Nc1c(Cl)cccc1Br` [Compound 110, N-(2-bromo-6-chlorophenyl)-4-methoxy-2-((3-methyl-4-(1-methylpiperidin-4-yl)phenyl)amino)pyrimidine-5-carboxamide], for which the EC50 is at most 250 nM in the assay on ACHN cells and at most 100 nM in assay [2]. Further, in assay [1], the IC50 was at most 10 nM.
As for `COc1nc(Nc2ccc(O[C@@H]3CCNC3)c(C)c2)ncc1C(=O)Nc1c(Cl)cccc1Br` [Compound 210], the values for the EC50 (in the assay with ACHN cells; in assay [2]) were 250 to 1000 nM and 100 to 500 nM, respectively.
`CCOc1nc(Nc2cnn(CCCN(C)C)c2)ncc1C(=O)Nc1c(Cl)cccc1Br` [Compound 200, N-(2-bromo-6-chlorophenyl)-2-{1-[3-(dimethylamino)propyl]-4-pyrazolylamino}-4-ethoxy-5-pyrimidinecarboxamide]: the EC50 in the assay with ACHN cells lay within 250 to 1000 nM; in assay [2], 100 to 500 nM.
On to `COc1nc(Nc2ccc([C@@H]3CCNC3)c(C)c2)ncc1C(=O)Nc1c(Cl)cccc1Br` (single isomer, unassigned) [Compound 195], for which the concentration giving a half-maximal response (EC50) lay within 250 to 1000 nM with ACHN cells and 100 to 500 nM in assay [2]. Also, the IC50 in assay [1] is at most 10 nM.
For the compound `C#Cc1cccc(Cl)c1NC(=O)c1cnc(Nc2ccc(C3CCN(C)CC3)c(C)c2)nc1OC` [Compound 129, N-(2-chloro-6-ethynylphenyl)-4-methoxy-2-((3-methyl-4-(1-methylpiperidin-4-yl)phenyl)amino)pyrimidine-5-carboxamide], the 50% effective concentration (EC50) with ACHN cells was 250 to 1000 nM; in assay [2], at most 100 nM. In addition, the half-inhibitory concentration (IC50) in assay [1] was at most 10 nM.
Consider `COc1nc(Nc2ccc(C3CCN(C)CC3)c(C)c2)ncc1C(=O)Nc1c(Cl)ccc(O)c1C` [Compound 141, N-(6-chloro-3-hydroxy-2-methylphenyl)-4-methoxy-2-((3-methyl-4-(1-methylpiperidin-4-yl)phenyl)amino)pyrimidine-5-carboxamide], for which the EC50 was at most 250 nM in the assay with ACHN cells and at most 100 nM in assay [2]. Further, in assay [1], the concentration for half-maximal inhibition (IC50) was at most 10 nM.
Turning to `COc1nc(Nc2ccc3c(cnn3C3CCN(C)CC3)c2)ncc1C(=O)Nc1c(Cl)cccc1Cl` [Compound 166], in assay [1], the IC50 is at most 10 nM. In addition, the EC50 in assay [2] was 100 to 500 nM.
In the case of `COc1nc(Nc2ccc(C3CCN(C)CC3)c(C)c2)ncc1C(=O)Nc1c(F)cc(F)cc1Cl` [Compound 127, N-(2-chloro-4,6-difluorophenyl)-4-methoxy-2-((3-methyl-4-(1-methylpiperidin-4-yl)phenyl)amino)pyrimidine-5-carboxamide], in assay [1], the concentration for half-maximal inhibition (IC50) was at most 10 nM. Besides, in assay [2], the concentration giving a half-maximal response (EC50) lay in the range of 100 to 500 nM.
As for `COc1nc(Nc2ccc(C3CCN(C)CC3)c(C)c2)ncc1C(=O)Nc1ccccc1C(F)(F)F` [Compound 114, 4-methoxy-2-((3-methyl-4-(1-methylpiperidin-4-yl)phenyl)amino)-N-(2-(trifluoromethyl)phenyl)pyrimidine-5-carboxamide], in assay [1], the IC50 is at most 10 nM. Also, the EC50 in assay [2] is above 1000 nM.
Taken in the same sequence, the figures for `CN1CCN(c2ccc(Nc3ncc(C(=O)Nc4c(Cl)cccc4Cl)c(OCC4CCCO4)n3)cc2)CC1` (stereo not drawn) [Compound 105] were at most 10 nM and above 1000 nM.
On to `CCOc1nc(Nc2ccc(OC3CCN(C)CC3)c(C)c2)ncc1C(=O)Nc1c(Cl)cccc1Br` [Compound 222], for which the 50% inhibitory concentration (IC50) in assay [1] is at most 10 nM. Besides, the 50% effective concentration (EC50) in assay [2] lay within 100 to 500 nM.
As for `COc1nc(Nc2ccc(C3CCN(C)CC3)c(Cl)c2)ncc1C(=O)Nc1c(Cl)cccc1Br` [Compound 215, N-(2-bromo-6-chlorophenyl)-2-[3-chloro-4-(1-methyl-4-piperidyl)phenylamino]-4-methoxy-5-pyrimidinecarboxamide], in assay [1], the 50% inhibitory concentration (IC50) is at most 10 nM. Moreover, the EC50 in assay [2] fell in the range of 100 to 500 nM.
On the same counts, the results for `COc1nc(Nc2ccc(OCCN(C)C)c(C)c2)ncc1C(=O)Nc1c(Cl)cccc1Cl` [Compound 143, N-(2,6-dichlorophenyl)-2-((4-(2-(dimethylamino)ethoxy)-3-methylphenyl)amino)-4-methoxypyrimidine-5-carboxamide] are at most 10 nM and 100 to 500 nM.
On the same counts, the results for `COc1nc(Nc2ccc(N3CCCNCC3)cc2)ncc1C(=O)Nc1c(Cl)cccc1Br` [Compound 207, 2-((4-(1,4-diazepan-1-yl)phenyl)amino)-N-(2-bromo-6-chlorophenyl)-4-methoxypyrimidine-5-carboxamide] are at most 10 nM and 100 to 500 nM.
With `COc1nc(Nc2ccc(C3CCN(C)CC3)c(C#N)c2)ncc1C(=O)Nc1c(Cl)ccc(O)c1C` [Compound 157, N-(6-chloro-3-hydroxy-2-methylphenyl)-2-((3-cyano-4-(1-methylpiperidin-4-yl)phenyl)amino)-4-methoxypyrimidine-5-carboxamide], in assay [1], the 50% inhibitory concentration (IC50) is 10 to 100 nM. For the same compound, the concentration for a half-maximal effect (EC50) in assay [2] lay within 100 to 500 nM.
On the same counts, the results for `COc1nc(Nc2cnn(C[C@@H]3CCNC3)c2)ncc1C(=O)Nc1c(Cl)cccc1Cl` [Compound 164] are at most 10 nM and above 1000 nM.
Turning to `COc1nc(Nc2ccc(C3CCN(C)CC3)c(C)c2)ncc1C(=O)Nc1ccccc1` [Compound 101, 4-methoxy-2-((3-methyl-4-(1-methylpiperidin-4-yl)phenyl)amino)-N-phenylpyrimidine-5-carboxamide], the concentration for half-maximal inhibition (IC50) in assay [1] lay within 10 to 100 nM. Further, the EC50 in assay [2] was above 1000 nM.
As to `COc1nc(Nc2ccc([C@H]3CCCNC3)c(C)c2)ncc1C(=O)Nc1c(Cl)cccc1Br` [Compound 198, (R)—N-(2-bromo-6-chlorophenyl)-4-methoxy-2-((3-methyl-4-(piperidin-3-yl)phenyl)amino)pyrimidine-5-carboxamide], in assay [1], the half-inhibitory concentration (IC50) is at most 10 nM. Also, in assay [2], the EC50 lay within 100 to 500 nM.
As for `COc1nc(Nc2ccc(OCCN3CCOCC3)c(C)c2)ncc1C(=O)Nc1c(Cl)cccc1Cl` [Compound 144, N-(2,6-dichlorophenyl)-4-methoxy-2-((3-methyl-4-(2-morpholinoethoxy)phenyl)amino)pyrimidine-5-carboxamide], the IC50 in assay [1] was at most 10 nM. Moreover, in assay [2], the EC50 is above 1000 nM.
As for `COc1nc(Nc2cnn([C@@H]3CCCNCC3)c2)ncc1C(=O)Nc1c(Cl)cccc1Cl` (single isomer, unassigned) [Compound 186], in assay [1], the half-maximal inhibitory concentration (IC50) is at most 10 nM. Besides, the concentration giving a half-maximal response (EC50) in assay [2] is above 1000 nM.
Taken in the same sequence, the figures for `COc1nc(Nc2cc(C)c(N3CCC(N(C)C)CC3)c(F)c2)ncc1C(=O)Nc1c(Cl)cccc1Br` [Compound 214] were at most 10 nM and 100 to 500 nM.
On to `COc1nc(Nc2ccc(OC3CCN(C)CC3)c(C)c2)ncc1C(=O)Nc1c(Cl)cccc1Cl` [Compound 145, N-(2,6-dichlorophenyl)-4-methoxy-2-((3-methyl-4-((1-methylpiperidin-4-yl)oxy)phenyl)amino)pyrimidine-5-carboxamide], for which the IC50 in assay [1] was at most 10 nM. Besides, in assay [2], the EC50 lay within 100 to 500 nM.
On the same counts, the results for `COc1nc(Nc2ccc(C3CCN(C)CC3)c(C)c2)ncc1C(=O)Nc1ccccc1Br` [Compound 107, N-(2-bromophenyl)-4-methoxy-2-((3-methyl-4-(1-methylpiperidin-4-yl)phenyl)amino)pyrimidine-5-carboxamide] are at most 10 nM and above 1000 nM.
`COc1nc(Nc2ccc(N3CCNCC3)c(C)c2)ncc1C(=O)Nc1c(Cl)cccc1Cl` [Compound 162]: the IC50 in assay [1] is at most 10 nM. Besides, the EC50 in assay [2] was in the range of 100 to 500 nM.
`COc1nc(Nc2cnn(C[C@H]3CCNC3)c2)ncc1C(=O)Nc1c(Cl)cccc1Cl` [Compound 165]: the IC50 in assay [1] was 10 to 100 nM. Also, the concentration for a half-maximal effect (EC50) in assay [2] is above 1000 nM.
